Measured values reported in PubChem BioAssay (NCI).
Where “and” joins values, the source holds several entries; their conditions need not be identical. Identical values can stand only once.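 96-well plates; 48 h exposure; 5 concentrations. Endpoints by linear interpolation between flanking doses. Not reached: highest tested concentration assigned. Abbreviation: GI50, concentration required for 50% inhibition of growth. TGI marks complete inhibition of growth.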

Columns and labels:
Test in all cases: NCI-60 cell line screen, 48 h
[1] = tested on: HT29 colon
[2] = tested on: LOX IMVI melanoma
[3] = tested on: SF-539 CNS
[4] = tested on: SK-MEL-28 melanoma
[5] = tested on: UACC-257 melanoma
[6] = tested on: NCI-H23 lung
[7] = tested on: SF-295 CNS
[8] = tested on: U251 CNS
[9] = tested on: SW-620 colon
[10] = tested on: SNB-19 CNS

Structure (SMILES)	GI50 [1]	TGI [1]	GI50 [2]	TGI [2]	GI50 [3]	TGI [3]	GI50 [4]	TGI [4]	GI50 [5]	TGI [5]	GI50 [6]	TGI [6]	GI50 [7]	TGI [7]	GI50 [8]	TGI [8]	GI50 [9]	TGI [9]	GI50 [10]	TGI [10]
COc1ccc(OC)c(Nc2nc3nonc3nc2Nc2cccc(Br)c2)c1	1.13 µM	> 100 µM	1.93 µM	> 100 µM	1.25 µM	29.5 µM	0.779 µM	> 100 µM	0.508 µM	7.37 µM	0.41 µM	5.49 µM	0.429 µM	3.29 µM	0.577 µM	11.7 µM	0.86 µM	> 100 µM	0.692 µM	19.1 µM
CC1(C)c2ccccc2N2C(c3ccccc3)=NOC21C (configuration not stated)	–	> 100 µM	–	> 100 µM	–	> 100 µM	–	> 100 µM	–	> 100 µM	–	> 100 µM	–	> 100 µM	–	> 100 µM	–	> 100 µM	–	> 100 µM
CCOC(=O)c1cc(=O)n(C)c(=O)n1C	–	> 100 µM	–	> 100 µM	–	> 100 µM	–	> 100 µM	–	> 100 µM	–	> 100 µM	–	> 100 µM	–	> 100 µM	–	> 100 µM	–	> 100 µM
O=c1nc2sc3ccccc3c(=O)n2[nH]1	–	> 100 µM	–	> 100 µM	–	> 100 µM	–	> 100 µM	–	> 100 µM	–	> 100 µM	–	> 100 µM	–	> 100 µM	–	> 100 µM	–	> 100 µM
Cc1cc(O)ccc1C1=NN(c2ccc(S(N)(=O)=O)cc2)C(=O)CC1	2.52 µM and 4.65 µM	50 µM and > 100 µM	10.8 µM and 29.7 µM	50 µM and > 100 µM	6.66 µM and 19.4 µM	50 µM and > 100 µM	25.7 µM and > 100 µM	50 µM and > 100 µM	31.3 µM and > 100 µM	50 µM and > 100 µM	14.5 µM and 22.5 µM	50 µM and > 100 µM	2.21 µM and 4.82 µM	34.7 µM and 24.3 µM	6.97 µM and 16.1 µM	50 µM and 67 µM	2.34 µM and 8.64 µM	50 µM and > 100 µM	27.4 µM and 20.3 µM	50 µM and > 100 µM
CC1=CC(=O)N(c2cccc3c(N4C(=O)C=C(C)C4=O)cccc23)C1=O	2.73 µM	8.1 µM	1.8 µM	5.56 µM	3.37 µM	26.2 µM	7.81 µM	43.5 µM	3.97 µM	25 µM	15.3 µM	39.7 µM	> 46.7 µM	> 71.5 µM	5.88 µM	19.5 µM	0.99 µM	2.93 µM	53.3 µM	> 100 µM
O=C(O)c1ccc2c(c1)C(=O)N(c1ccc(S(=O)(=O)c3ccc(N4C(=O)c5ccc(C(=O)O)cc5C4=O)cc3)cc1)C2=O	–	> 100 µM	–	> 100 µM	–	> 100 µM	–	> 100 µM	–	> 100 µM	–	> 100 µM	–	> 100 µM	–	> 100 µM	–	> 100 µM	–	> 100 µM
COc1ccc2c(c1)C(=Nc1ccc(F)c(Cl)c1)c1c-2c(Nc2ccc(F)c(Cl)c2)nc2ccccc12	> 100 µM	> 100 µM	51.8 µM	> 100 µM	27 µM	> 74.9 µM	> 100 µM	> 100 µM	> 60.6 µM	> 100 µM	19.9 µM	58 µM	33 µM	> 100 µM	18.8 µM	43.8 µM	> 100 µM	> 100 µM	44.8 µM	> 100 µM
Cc1ccc(/C=N/NC(=O)c2ccccc2Oc2ccccc2)o1	63.8 µM	> 100 µM	> 67.4 µM	> 100 µM	> 83.6 µM	> 100 µM	36.6 µM	> 100 µM	36.5 µM	> 100 µM	39.2 µM	> 100 µM	27.9 µM	> 100 µM	52.2 µM	> 100 µM	> 77.6 µM	> 100 µM	48.4 µM	> 100 µM
N#C/C(=C\c1cc(O)c(O)c(O)c1)C(N)=O	–	> 100 µM	–	> 65.6 µM	–	> 100 µM	–	> 100 µM	–	> 100 µM	–	> 100 µM	–	> 100 µM	–	> 100 µM	–	> 100 µM	–	> 100 µM
CN1CCN(CCCNC(=O)c2c3c(n4ccccc24)C(=O)c2ncccc2C3=O)CC1	0.612 µM	2.96 µM	0.715 µM	3.36 µM	1.99 µM	6.56 µM	4.57 µM	19.1 µM	0.971 µM	2.3 µM	0.674 µM	3.08 µM	1.25 µM	13.1 µM	1.48 µM	6.54 µM	0.578 µM	9.49 µM	1.35 µM	6.09 µM
C/C(=N\NC(=O)c1ccncc1)c1sc(-n2nc(-c3ccccc3)cc2-c2ccccc2)nc1C	–	> 100 µM	–	> 100 µM	–	> 31.6 µM	–	> 31.6 µM	–	> 31.6 µM	–	> 31.6 µM	–	> 31.6 µM	–	> 31.6 µM	–	> 31.6 µM	–	> 31.6 µM
COc1cccc2c1C(=O)c1c(O)c3c(c(O)c1C2=O)C[C@@](O)(C(=O)CO)CC3OC1CC(N)C(OC2CCCCO2)C(C)O1 (some centres not stated)	0.0381 µM	1.81 µM and 17.1 µM	0.0184 µM	1 µM and 1.62 µM	0.00352 µM	–	0.113 µM	–	0.129 µM	0.455 µM and 3.42 µM	0.0218 µM	0.302 µM and 2.33 µM	0.00963 µM	1.13 µM and 2.44 µM	0.00812 µM	–	0.113 µM	1.03 µM and 7.04 µM	0.033 µM	2.54 µM and 3.06 µM
O/N=C(\CC(O)(C(F)(F)F)C(F)(F)F)c1cccs1	–	> 10 µM	–	> 10 µM	–	> 10 µM	–	> 10 µM	–	> 10 µM	–	> 10 µM	–	> 10 µM	–	> 10 µM	–	> 10 µM	–	> 10 µM
